What was measured:
endogenous canine ABCB1 [1] = molecular target: T1, endogenous canine ABCB1 (Canis lupus familiaris, UniProt C0KKU9); assay: Transepithelial transport, parental MDCK-II cells; format: in vitro ADME; conditions: dog, pH 7.4, repotrectinib 5 µM, no inhibitor, read-out: efflux transport ratio r
T1 construct: the low-level endogenous canine ABCB1 present in MDCK-II cells; host or cells: parental MDCK-II cells (canine kidney)
Text: (§1) Polarized Madin-Darby Canine Kidney (MDCK-II) cells (ECACC 00062107) stably transduced with either human (h) ABCB1, hABCG2 or mouse (m) Abcg2 cDNA were generated in our institute between 1995–2005. The proper identity and functionality, such as highly characteristic growth and drug transporter properties, including inhibitor sensitivity, were regularly checked in these epithelial cells. Mycoplasma routinely tested negative in these cells. The passage number was 10–15 when used in the transport experiments.
(§2) Transepithelial transport experiments were performed as previously described with 12-well plates (Transwell 3414, Corning Inc., Kennebunk, ME, USA) containing microporous polycarbonate membrane filters (3.0 µm pore size, 12 mm diameter). […]
(§3) After pre-incubation with 5 µM zosuquidar (ABCB1 inhibitor) and/or 5 µM Ko143 (ABCG2/Abcg2 inhibitor) in both compartments (when appropriate) for 1 h, the transport phase was initiated (t = 0) by replacing the medium in apical and basolateral compartments with fresh DMEM with 10% FBS and the appropriate inhibitor(s), and repotrectinib at 5 µM in the donor compartment. […] The active transport ratio r, calculated by dividing the amount of apically directed drug transport by basolaterally directed drug translocation after 8 h, was used to assess active transport of repotrectinib.

endogenous canine ABCB1 [2] = tested on: T2, endogenous canine ABCB1; assay: Transepithelial transport, parental MDCK-II cells; format: in vitro ADME; conditions: dog, pH 7.4, with zosuquidar 5 µM, 5 µM, + zosuquidar 5 µM, read-out: efflux transport ratio r
T2 construct: the low-level endogenous canine ABCB1 present in MDCK-II cells; host or cells: parental MDCK-II cells (canine kidney)
Text: as §1, §2, §3

T1 sequence (C0KKU9 1-1281): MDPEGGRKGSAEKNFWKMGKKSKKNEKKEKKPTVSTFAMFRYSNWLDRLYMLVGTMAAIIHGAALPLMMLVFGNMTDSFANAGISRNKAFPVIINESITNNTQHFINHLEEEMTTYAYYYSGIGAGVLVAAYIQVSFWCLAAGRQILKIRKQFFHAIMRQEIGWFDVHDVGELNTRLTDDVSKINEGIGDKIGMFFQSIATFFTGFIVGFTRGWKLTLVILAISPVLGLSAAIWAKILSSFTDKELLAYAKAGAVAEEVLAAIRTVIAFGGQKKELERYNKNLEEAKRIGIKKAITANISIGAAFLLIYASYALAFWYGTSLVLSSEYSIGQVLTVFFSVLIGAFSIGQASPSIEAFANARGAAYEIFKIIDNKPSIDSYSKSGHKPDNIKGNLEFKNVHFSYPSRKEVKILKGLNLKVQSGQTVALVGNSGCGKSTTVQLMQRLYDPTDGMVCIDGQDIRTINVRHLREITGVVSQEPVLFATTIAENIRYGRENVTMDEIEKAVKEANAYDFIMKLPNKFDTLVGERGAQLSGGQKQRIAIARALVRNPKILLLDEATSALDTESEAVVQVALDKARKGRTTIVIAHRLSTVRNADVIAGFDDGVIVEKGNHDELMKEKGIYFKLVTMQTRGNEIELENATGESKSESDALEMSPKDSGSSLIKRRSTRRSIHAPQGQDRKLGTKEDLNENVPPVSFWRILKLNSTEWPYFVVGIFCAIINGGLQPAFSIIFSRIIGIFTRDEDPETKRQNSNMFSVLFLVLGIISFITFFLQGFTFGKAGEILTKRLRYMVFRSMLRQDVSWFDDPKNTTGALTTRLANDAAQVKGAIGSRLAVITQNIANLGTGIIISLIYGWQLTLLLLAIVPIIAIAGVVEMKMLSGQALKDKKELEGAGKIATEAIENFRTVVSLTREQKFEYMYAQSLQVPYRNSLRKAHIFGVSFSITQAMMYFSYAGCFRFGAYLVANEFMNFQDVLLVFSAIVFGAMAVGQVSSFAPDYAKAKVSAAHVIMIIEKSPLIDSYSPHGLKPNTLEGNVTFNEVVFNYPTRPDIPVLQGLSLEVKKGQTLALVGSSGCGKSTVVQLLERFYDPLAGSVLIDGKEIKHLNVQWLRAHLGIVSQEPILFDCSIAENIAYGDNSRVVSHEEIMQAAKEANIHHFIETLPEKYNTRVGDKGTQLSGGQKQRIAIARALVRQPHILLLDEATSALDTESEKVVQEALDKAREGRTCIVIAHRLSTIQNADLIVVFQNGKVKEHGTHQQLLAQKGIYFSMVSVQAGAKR

In the case of `C[C@H]1CNC(=O)c2cnn3ccc(nc23)N[C@H](C)c2cc(F)ccc2O1` [repotrectinib], the efflux ratio at 8 h, 5 µM (endogenous canine ABCB1 [1]) was 2.5 and the efflux ratio at 8 h, 5 µM (endogenous canine ABCB1 [2]) was 1.

Reference: publication PMC8619046, “ABCB1 and ABCG2 Control Brain Accumulation and Intestinal Disposition of the Novel ROS1/TRK/ALK Inhibitor Repotrectinib, While OATP1A/1B, ABCG2, and CYP3A Limit Its Oral Availability” (Pharmaceutics, 2021)
